PubChem BioAssay AID504322 (Emory University Molecular Libraries Screening Center, 2011)
Active and inactive are the calls of the source. The rule behind the calls is not given here.

What follows are compounds tested on CHOP reporter cell assay, percent of control (assay: CHOP reporter inhibitor potency, dose response, cell-based (AID 504322);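 note: CHO cells carrying a CHOP reporter stimulated with tunicamycin to induce ER stress; potency is for inhibition of the stress-induced reporter signal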).
Work on `COc1cc(/C=C2\COC/C(=C\c3cc(OC)c(OC)c(OC)c3)C2=O)cc(OC)c1OC` yielded an IC50 of 3.46 µM.
For `O=C(NCc1nc(-c2ccc(C(F)(F)F)cc2)no1)Nc1cc(Cl)cc(Cl)c1`, the IC50 was 4.78 µM.
With `Oc1ccc(Oc2ccc3c(C(F)(F)F)cc(C(F)(F)F)nc3n2)cc1` the IC50 was 9.36 µM (inactive).
In the case of `CC(C)(C)OC(=O)NCCc1nnc(S(=O)(=O)Cc2ccc(Cl)cc2Cl)o1`, the IC50 is reported as > 10 µM (inactive).
In the case of `Cc1ccc(NC(=O)c2nc[nH]c2C(=O)N[C@@H](C)C(=O)OC(C)(C)C)cc1`, the IC50 is reported as 5.12 µM (inactive).
For `Cc1cc(C)n(-c2nc(Nc3ccccc3C(F)(F)F)nc(-n3nc(C)cc3C)n2)n1`, the IC50 was 3.93 µM (inactive).
With `FC(F)(F)c1cccc(CN2CCC(c3cc(-c4cccs4)n[nH]3)CC2)c1` the IC50 was 9.4 µM (inactive).
`CCOC(=O)C1=C(c2ccccc2)O/C(=C(/C#N)C(F)(F)F)S1` was tested, and the IC50 was 6.28 µM (inactive).
With `O=C(NC1CCCCC1)C(c1ccc(F)cc1)N(Cc1ccccc1)C(=O)CN1C(=O)c2ccccc2S1(=O)=O` (centres undefined) the IC50 was 4.85 µM.
With `CC(C)(C)c1ccc(CN2N=Nc3ccccc3S2(=O)=O)cc1` the IC50 was 9.3 µM (inactive).
For `CCc1c(C)sc(NC(=O)CSc2nc3c(c(C(F)(F)F)n2)CCc2ccccc2-3)c1C#N`, the IC50 was 9.75 µM (inactive).
With `O=C1CC(c2cccc(Cl)c2)CC(O)=C1C=Nc1cccc(Cl)c1` (centres undefined) the IC50 was 9.72 µM (inactive).
`CC(C)CC(NC(=O)c1ccc(Cl)cc1)C(=O)OCC(=O)c1ccc2c(c1)NC(=O)CO2` (centres undefined) was tested, and the IC50 was 1.6 µM.
Work on `Cc1ccc2nc(NC(=O)C3CCN(S(=O)(=O)c4cc([N+](=O)[O-])ccc4Cl)CC3)sc2c1` yielded an IC50 of 3.51 µM.
`CCC(C)Sc1nc2c(c(=O)[nH]c(=O)n2C)n1Cc1ccc(Cl)cc1` (centres undefined) was tested, and the IC50 was > 10 µM (inactive).
`CNC(=O)c1nnsc1S(=O)(=O)c1ccc(Cl)cc1` showed an IC50 of 4.03 µM.
With `C/C(=N\N=C1\NC(=O)C(CC(=O)Nc2ccc(C)c(Cl)c2)S1)C(C)(C)C` (centres undefined) the IC50 was 9.43 µM (inactive).
In the case of `CCN=C1NN=C(c2cc(C)n(Cc3ccco3)c2C)CS1`, the IC50 is reported as less than 0.16 µM.
`CCCC(=O)NC(NC(=S)Nc1ccc(N=Nc2ccccc2)cc1)C(Cl)(Cl)Cl` (centres undefined) showed an IC50 of 7.31 µM.
With `O=S(=O)(/C(=C/c1ccc(C(F)(F)F)cc1)c1nc2ccccc2[nH]1)c1ccccc1` the IC50 was 5.46 µM (inactive).
With `CCCCC(CC)C(=O)Oc1ccc(O)c(C(C)(C)C)c1` (centres undefined) the IC50 was 2.37 µM (inactive).
In the case of `CS(=O)(=O)c1ccc(S(=O)CC(=O)OCc2ccccc2)c([N+](=O)[O-])c1` (centres undefined), the IC50 is reported as > 10 µM (inactive).
Work on `O=C(c1ccc2c3c(cccc13)C(=O)N(O)C2=O)N1CCCCC1` yielded an IC50 of 1.92 µM.
With `O=C(/C=C/c1ccccc1)Nc1cccc(C(=O)O)c1` the IC50 was 3.59 µM (inactive).
With `CC(C)C[C@H](NC(=O)OC(C)(C)C)C(=O)N/N=C/C1=Cc2ccccc2OC1C` (some centres undefined) the IC50 was 2.31 µM.
`CC1(c2ccc(OC(F)F)cc2)NC(=O)N(/N=C/c2c(O)ccc3ccccc23)C1=O` (centres undefined) was tested, and the IC50 was 8.25 µM (inactive).
In the case of `Cc1cccnc1NC(=O)c1c(O)c2ccccc2n(C)c1=O`, the IC50 is reported as > 10 µM (inactive).
In the case of `Cc1ccc(C)c(NC(=S)NC(NC(=O)/C=C/c2ccccc2)C(Cl)(Cl)Cl)c1` (centres undefined), the IC50 is reported as 9.63 µM (inactive).
Work on `C=C1C(=O)C=C2CN(C(=O)c3ccccc3)[C@@](Cc3ccc(F)cc3)(C(=O)OC)[C@@H]12` yielded an IC50 of 1.16 µM.
For `O=C(c1ccco1)N1CCN(c2c(-c3ccccc3)c3cc(Cl)ccc3[nH]c2=O)CC1`, the IC50 was 5.65 µM (inactive).
For `COc1cc(/C=C2\CC/C(=C\c3cc(OC)c(O)c(OC)c3)C2=O)cc(OC)c1O`, the IC50 was 1.84 µM (inactive).
For `CC(=O)OCC1O[C@@H](O[C@@H]2C[C@H]3C(C)(C)[C@H](OC(C)=O)CC[C@]3(C)[C@H]3CC[C@]45C[C@]4(CC[C@H]5[C@@H](C)C[C@@H](O)[C@H](O)C(C)(C)O)[C@@]32C)[C@H](O)[C@@H](O)[C@@H]1O` (some centres undefined), the IC50 was 5.96 µM (inactive).
With `O=C(N/N=C/c1cccc(F)c1)c1c(O)c2ccccc2[nH]c1=O` the IC50 was 6.48 µM (inactive).
For `COc1ccc(/C=C2/C(=O)ON=C2c2ccccc2)cc1OC`, the IC50 was > 10 µM (inactive).
With `O=[N+]([O-])c1ccc(S(=O)(=O)CC(CN2CCCCC2)N2CCCCC2)cc1` (centres undefined) the IC50 was 5.93 µM (inactive).
With `Cc1ccc(NC(=S)NC(NC(=O)Cc2cccc3ccccc23)C(Cl)(Cl)Cl)cc1` (centres undefined) the IC50 was > 10 µM (inactive).
`Cc1ccc(-c2nc3cc(NS(=O)(=O)c4ccc(C)cc4)ccc3o2)cc1` was tested, and the IC50 was 5.63 µM (inactive).
With `CSc1nc(-c2ccccc2)nc(C(Cl)Cl)n1` the IC50 was 5.1 µM.
In the case of `CC(C)(C)c1cc(-c2csc(Nc3ccccc3)[n+]2Cc2ccc(C(=O)O)cc2)cc(C(C)(C)C)c1O`, the IC50 is reported as 9.46 µM (inactive).
With `CCN(CC)CCOC(=O)c1ccc(N/C=C(/C#N)c2nc(-c3cccc(OC)c3)cs2)cc1` the IC50 was 9.3 µM (inactive).
`O=C(COCC(=O)Nc1cccc(C(F)(F)F)c1)Nc1cccc(C(F)(F)F)c1` was tested, and the IC50 was 5.44 µM (inactive).
For `CC(=O)NCc1ccc(C(=O)CCl)s1`, the IC50 was 9.42 µM (inactive).
`CCOC(=O)N=Nc1c2ccccc2c2nc3no[nH]c3nc12` was tested, and the IC50 was 4.21 µM.
`CCCCCCNC(=O)CC(c1ccccc1)c1cc(Br)ccc1O` (centres undefined) showed an IC50 of 3.52 µM.
`CC1=C(C)/C(=N\OS(=O)(=O)c2ccccc2)C=CC1=O` gave an IC50 of 2.13 µM.
For `CCCCn1c(NS(=O)(=O)c2ccc(C)cc2)c(S(=O)(=O)c2ccccc2)c2nc3ccccc3nc21`, the IC50 was > 10 µM (inactive).
With `CC(C)COc1ccc(/C(=N/O)c2ccccc2)cc1` the IC50 was 5.73 µM (inactive).
`O=C1C=CC(=O)N1CCCCCCN1C(=O)C=CC1=O` gave an IC50 of 4.94 µM.
`Cc1ccc2c(c1)c1c(n2CC(O)Cn2c(C)nc3ccccc32)CCCC1` (centres undefined) was tested, and the IC50 was 6.68 µM (inactive).
With `CCCCn1c(=O)c(C(=O)Nc2cnccn2)c(O)c2ccccc21` the IC50 was 7.31 µM (inactive).
In the case of `CCOc1ccc(-c2n[nH]c(C)c2Oc2ccc(OC)cc2)c(O)c1`, the IC50 is reported as > 10 µM (inactive).
In the case of `Cc1nc(COC(=O)c2cc(O)c3ccccc3c2O)cs1`, the IC50 is reported as > 10 µM (inactive).
With `O=[N+]([O-])c1ccc(-c2nn(-c3ccccc3)cc2/C=N/n2c(-c3cccs3)n[nH]c2=S)cc1` the IC50 was > 10 µM (inactive).
For `CC(C)(C)C(=O)NC(NC(=S)Nc1sc2c(c1C#N)CCCC2)C(Cl)(Cl)Cl` (centres undefined), the IC50 was > 10 µM (inactive).
In the case of `CCOc1ccc(/C=N/NC(=O)c2cc(-c3ccco3)nc3ccccc23)cc1`, the IC50 is reported as 5.15 µM (inactive).
`C#CC(=O)N(c1cc(OC)ccc1OC)C(C(=O)NC1CCCC1)c1cccs1` (centres undefined) was tested, and the IC50 was > 10 µM (inactive).
For `CC(C)c1nnc(NC(=O)c2c(O)c3cccc4c3n(c2=O)CCC4)s1`, the IC50 was 4.99 µM (inactive).
With `C=C(C)COc1ccc(-c2n[nH]c(C)c2-c2ccc(Br)cc2)c(O)c1` the IC50 was 9.53 µM (inactive).
With `O=C(c1ccc(COc2ccc(Cl)cc2)o1)N1N=C(C(F)F)CC1(O)C(F)F` (centres undefined) the IC50 was 9.64 µM (inactive).
`CC(C)(C)c1nnc(N/N=C/c2cc(Br)ccc2O)n(N)c1=O` was tested, and the IC50 was 5.11 µM (inactive).
With `Cc1ccc(C(C(=O)NC2CCCCC2)N(C(=O)Cc2c[nH]c3ccccc23)c2ccccc2C)o1` (centres undefined) the IC50 was > 10 µM (inactive).
`CCSc1nc(-c2ccccc2)nc(C(Cl)Cl)n1` was tested, and the IC50 was 6.32 µM (inactive).
For `Cc1ccc(-c2nn(-c3ccccc3)cc2/C=N/NC(=O)c2ccc(Br)o2)cc1`, the IC50 was 5.04 µM.
With `CCOC(=O)c1c(C)[nH]c(C(=O)COC(=O)c2[nH]c(C)c(C(C)=O)c2C)c1C` the IC50 was > 10 µM (inactive).
`O=C(OCC(F)(F)F)c1cccc(COc2ccc3ccccc3c2)c1` gave an IC50 of 1.26 µM.
With `CCN(CCO)c1ncnc2c1sc1nc(CC(C)C)c3c(c12)CC(C)(C)OC3` the IC50 was 9.11 µM (inactive).
For `COc1cc(/C=C/c2nc(N)nc(-c3ccccc3O)n2)cc(OC)c1OC`, the IC50 was > 10 µM (inactive).
`Cc1cc(Nc2ccc(Cl)cc2)nc(NCc2ccccc2)n1` was tested, and the IC50 was > 10 µM (inactive).
Compound `CCCCCCn1c(=O)c(C(=O)Nc2cnccn2)c(O)c2ccccc21` has an IC50 of 2.64 µM.
In the case of `Cc1cc(C(=O)COC(=O)c2ccccc2O)c(C)n1Cc1cccs1`, the IC50 is reported as < 0.16 µM (inactive).
For `Cc1ccc(C)c(OCc2ccc(C(=O)N3N=C(C(F)F)CC3(O)C(F)F)o2)c1` (centres undefined), the IC50 was 2.89 µM.
With `COc1ccc(CCN2C(=O)c3[nH]nc(-c4ccccc4O)c3C2c2cccc(Cl)c2)cc1` (centres undefined) the IC50 was > 10 µM (inactive).
With `O=C(Nc1ccccc1Cl)/C(Cl)=C(\Cl)S(=O)c1ccccc1` (centres undefined) the IC50 was 2.4 µM.
With `COc1cc(N(C(=O)Cc2cccs2)C(C(=O)NC2CCCCC2)c2ccc(C)cc2)ccc1-n1cnnn1` (centres undefined) the IC50 was 9.94 µM (inactive).
`COc1ccc(NC(=O)/C(Cl)=C(/Cl)S(=O)(=O)Cc2ccc(C)cc2)cn1` was tested, and the IC50 was > 10 µM (inactive).
With `CC[C@@H](C)[C@H](NC(=O)OC(C)(C)C)c1nnc(S(=O)(=O)Cc2cc(C)ccc2C)o1` the IC50 was > 10 µM (inactive).
`CN1CCN(CC(=O)N2CCn3c4c(c5cc(C6CCCCC6)ccc53)CCCC42)CC1` (centres undefined) was tested, and the IC50 was 9.6 µM (inactive).
`COC(=O)/C(=C1/Oc2cc(C)oc(=O)c2S1)C(F)(F)F` showed an IC50 of 4.93 µM.
`OCCCNc1cc(-c2ccnc(Nc3cccc(Cl)c3)n2)ccn1` showed an IC50 of less than 0.16 µM.
`Fc1c(F)c(C(F)(F)F)c(F)c(F)c1N/N=C\c1cccs1` was tested, and the IC50 was 4.78 µM.
Work on `O=C(NC(c1ccccc1)c1cc(Cl)c2cccnc2c1O)c1cccnc1` (centres undefined) yielded an IC50 of 3.36 µM.
`Fc1ccc(Nc2nc(NCc3ccco3)c3ccccc3n2)cc1` was tested, and the IC50 was > 10 µM (inactive).
`C(=N\Nc1ncnc2sc3c(c12)CCC3)/c1cccs1` was tested, and the IC50 was 8.89 µM (inactive).
With `CC(C)c1ccc(-c2cc(C(=O)N3N=C(C(F)F)CC3(O)C(F)F)c3ccccc3n2)cc1` (centres undefined) the IC50 was 8.38 µM (inactive).
With `Cc1ccc(C2=NN(C(=O)c3cccs3)C(c3ccccc3O)C2)cc1` (centres undefined) the IC50 was 9.38 µM (inactive).
With `CC(C)(C)c1ccc(Oc2ccc(N)cc2)cc1` the IC50 was < 0.16 µM (inactive).
For `CCOC(=O)N1CCC(n2c(=S)[nH]c3cc(OCC)c(OCC)cc3c2=O)CC1`, the IC50 was 4.35 µM (inactive).
`Cc1ccc(-c2ccc(/C=C(\C#N)C(=O)Nc3cc(C)nn3-c3ccccc3)o2)cc1` was tested, and the IC50 was 6.7 µM (inactive).
For `O=C(Nc1ccc(C(O)(C(F)(F)F)C(F)(F)F)cc1)c1ccc(Cl)c([N+](=O)[O-])c1`, the IC50 was 4.58 µM (inactive).
`C=C(C)Cn1c(N2CCC(Cc3ccccc3)CC2)nc2c1c(=O)[nH]c(=O)n2C` was tested, and the IC50 was 8 µM (inactive).
In the case of `CN1/C(=C\C=C\C2=[N+](C)c3ccc4ccccc4c3C2(C)C)C(C)(C)c2ccccc21`, the IC50 is reported as 0.41 µM (inactive).
In the case of `CC(C)(C)c1ccc(OCCNC(=S)Nc2ccccc2)cc1`, the IC50 is reported as > 10 µM (inactive).
In the case of `Cc1nc2c(=O)n(C)c(=O)n(C)c2nc1Cl`, the IC50 is reported as 3.79 µM (inactive).
For `Cc1ccc(NC(=O)c2ccc(Nc3c([N+](=O)[O-])cc([N+](=O)[O-])cc3[N+](=O)[O-])cc2)cc1`, the IC50 was 1.81 µM.
